The numbers were not newly measured in patent US20250170128A1, “Obicetrapib and SGLT2 Inhibitor Combination” (NE[…] B.V. (Dutch Chamber of Commerce No. 5597 1946), priority 2021, published 2025), which cites them from elsewhere.

Molecules are shown by their SMILES.

One data set addresses T1, CETP (Homo sapiens, UniProt P11597).
T1 construct: CETP is a plasma protein secreted primarily by liver and adipose tissue
T1 sequence (P11597 18-493): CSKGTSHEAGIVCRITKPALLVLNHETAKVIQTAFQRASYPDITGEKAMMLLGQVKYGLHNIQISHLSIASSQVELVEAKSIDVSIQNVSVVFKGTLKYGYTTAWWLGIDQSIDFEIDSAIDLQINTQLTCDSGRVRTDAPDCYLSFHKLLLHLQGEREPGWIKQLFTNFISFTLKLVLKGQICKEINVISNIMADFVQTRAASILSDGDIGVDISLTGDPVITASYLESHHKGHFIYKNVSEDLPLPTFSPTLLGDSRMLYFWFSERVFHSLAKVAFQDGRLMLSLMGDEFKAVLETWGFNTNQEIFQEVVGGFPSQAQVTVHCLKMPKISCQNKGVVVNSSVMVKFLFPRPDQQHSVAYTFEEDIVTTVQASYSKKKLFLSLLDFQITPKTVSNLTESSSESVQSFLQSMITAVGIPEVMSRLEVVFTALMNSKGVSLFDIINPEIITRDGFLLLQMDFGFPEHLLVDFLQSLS
The settings on record: repeated daily dosages (once a day) as low as 2.5 mg.

The conditions of data set [1]: clinical studies.

Turning to `CCOC(=O)N1c2ccc(C(F)(F)F)cc2[C@@H](N(Cc2cc(C(F)(F)F)cc(C(F)(F)F)c2)c2ncc(OCCCC(=O)O)cn2)C[C@H]1CC` [compound of Formula (I), (2R,4S)-4-{[3,5-bis(trifluoromethyl)benzyl]-[5-(3-carboxypropoxy)pyrimidin-2-yl]amino}-2-ethyl-6-trifluoromethyl-3,4-dihydro-2H-quinoline-1-carboxylic acid ethyl ester], on CETP, the CETP inhibition entry was “near complete CETP-inhibition”. Also, in data set [1], the serious side effects entry is “does not lead to serious side effects” and the tolerability entry is “well tolerated”.
